Patent publication US12391646B2, “Using adiponectin receptor agonists to treat inflammation and bone diseases in diabetes” (Trustees of Tufts College, priority 2020, dated 2025)

Columns and labels:
[1] = system: peritoneal macrophages (PEMs); assay: IL-6 and IL-1β production by peritoneal macrophages isolated from AdipoAI-treated mice; format: in vivo, C57BL/6J mice; conditions: i.p., 20 mg/kg body weight as printed
[2] = system: LPS-stimulated Raw264.7 cells; assay: mRNA microarray analysis of LPS-stimulated Raw264.7 cells; format: cell-based
Protocol: FIG. 2 AdipoAI suppresses LPS-stimulated inflammatory responses in macrophages. (a) Raw264.7 cells or (b) BMMs were pretreated with APR (20 μM) or AdipoAI (5 μM) for 24 h followed by incubation with LPS (100 ng/mL) for additional 6 h for the measurement of IL-6 and IL-1β in supernatants by ELISA. Data were expressed as the mean±SEM at five biological independent experiments. One-way ANOVA test for multiple-group comparisons, * vs. LPS group, *P<0.05, significant differences between each indicated group. (c) PEMs were isolated from C57BL/6J mice (n=5 mice/group) were injected i.p. with ImL 4% thioglycolate solution or AdipoAI (25 mg/kg) for the measurement of IL-6 and IL-1β. The amounts of IL-6 and IL-1β in supernatant were measured by ELISA. Data were expressed as the mean±SEM (n=5). Two-tailed Student's t-test for two groups, *P<0.05, significant differences between each indicated group. (d-f) Impact of AdipoAI on basal (d) and LPS-induced expression of an array of proinflammatory cytokines, chemokines, and receptors (e,f) in Raw264.7 cells (4 groups and 3 biological replicates/group). Data analyses were performed according to the manufacturer's instructions with their web-based software package (www.qiagen.com/us/shop/genes-and-pathways/data-analysis-center overview-page/). (g) Differentiated expressed genes annotated to a gene-ontology term and example genes by gene-ontology-enrichment analysis of each component. (brown: LPS vs control; black: AdipoAI+LPS vs LPS). (h) Differentially expressed M1 and M2 genes are shown according to the microarray databases. […]
FIG. 7 AdipoAI regulated methylation level of the c-Maf gene promoter to suppress c-Maf activation in LPS-induced macrophages. […] (b) mRNA levels of c-Maf were determined by qPCR in Raw264.7 cells, BMMs and PEMs treated with AdiopoAI or LPS. Data were expressed as the mean±SEM at five […] biological independent experiments. […] (c) c-Maf mRNA expression levels in lung, spleen, liver and WAT of LPS-induced endotoxemia mice were measured by qRT-PCR and normalized with GAPDH mRNA levels. Data are expressed as mean±SEM (n=6). […]

[3] = system: LPS-stimulated bone marrow-derived macrophages (BMMs); assay: qRT-PCR of IL-6 and IL-1β mRNA in LPS-stimulated BMMs; format: cell-based, C57BL/6J mice; conditions: AdipoAI 5 μM compared with compound 5 (5 μM) and APR (20 μM)
APPL1/MyD88 interaction = assay: Co-immunoprecipitation of AdipoR1, APPL1 and MyD88 in Raw264.7 cells; format: cell-based; conditions: AdipoAI (5 μM) and LPS-treated cells compared to control cells
Protocol: FIG. 6 Involvement of APPL1/MyD88 interaction in the anti-inflammatory effects of AdipoAI in macrophages. (a) RAW 264.7 cells were transfected with siRNA targeting MyD88, c-Maf or scrambled control siRNA for 24 h, followed by stimulation with LPS for 6 h. Transfection efficiency of siRNA and mRNA expression levels of proinflammatory cytokines were measured by qPCR and normalized with GAPDH mRNA levels. Data were expressed as the mean±SEM at five biological independent experiments. One-way ANOVA test for multiple-group comparisons, * vs. LPS+Scrambled group, *P<0.05, significant differences between each indicated group. ns, not significant. (b) Raw264.7 cells were transfected with siRNA targeting MyD88 or scrambled control siRNA for 24 h, followed by stimulation with LPS for 30 min for measurement of related proteins. Representative images are shown along with β-actin as an internal loading control and densitometric analysis. Densitometry values-MyD88: 1.00, 0.24, 1.20, 0.33; pIRAK4: 1.00, 0.00; p-P38: 1.00, 0.11. […] Proteins immunoprecipitated with the anti-MyD88 antibody were analyzed by immunoblotting with antibodies for MyD88, APPL1, and AdipoR1. […]
The RAW 264.7 macrophages were seeded at a density of 6×10^6 cells per 100 mm dish. […] The immunoprecipitates were washed with lysis buffer and further analyzed by polyacrylamide gel electrophoresis and Western blot analyses. […]

COc1ccc(CN2CCC(NC(=O)COc3ccc(C(=O)c4ccc(Cl)cc4)cc3)CC2)cc1 [Compound 3]
production of IL-6 and IL-1β by PEMs from treated mice [1]: reduced IL-6 and IL-1β | expression of M1 or M2 macrophage-related genes ([2]; LPS-induced Raw264.7 cells): did not alter the expression of M1 or M2 macrophage-related genes | expression of proinflammatory cytokines, chemokines and receptors (microarray) ([2]; LPS-stimulated Raw264.7 cells): decreased the expression of the same genes to near basal levels | c-Maf mRNA levels (microarray) ([2]; LPS-treated Raw264.7 cells): inhibited | inhibition of LPS-stimulated IL-6 and IL-1β expression in BMMs [3]: strongest inhibitory effects | interaction of APPL1 with MyD88 (Co-IP) (APPL1/MyD88 interaction): the interaction of APPL1 with MyD88 was increased
